Here are results for nine molecules from patent publication US20050245463A1, “Novel antiretroviral sulfolipids extracted from spirulinae, method for obtaining same, compositions containing same and use thereof as inhibitors of the hiv virus reverse transcriptase” (priority 2002, published 2005).

Structures are written as SMILES. Values after ≈ are worked out from the molar mass of the structure shown.

Holding throughout (assay type): biochemical
Assay [1] has as its target T1, RNase-H of HIV-1 reverse transcriptase (Human immunodeficiency virus type 1 group M subtype B, UniProt P03366).
T1 construct: The HIV-1 and HIV-2 reverse transcriptases are the hetero-dimers p.66/p.5 l and p.68/p.55, respectively; made in house; host or cells: E. coli
Description: Inhibition of the RNase-H of HIV-1 reverse transcriptase. The following applies: for RNase-H % of initial enzymatic activity: 100 μM of each sulfolipid molecular species, residual activity as % of control without inhibitor; for inhibition of the RNase-H of HIV-1 reverse transcriptase (in words): ranking among molecular species. Here is the method: (§1) The reverse transcriptases used in this study are the recombinant enzymes expressed in E. coli and purified from the bacterial extracts (16). The HIV-1 reverse transcriptase expression plasmid originates from the proviral isolate BH-10 (17), while the HIV-2 reverse transcriptase expression plasmid originates from the isolate pRod (18). The HIV-1 and HIV-2 reverse transcriptases are the hetero-dimers p.66/p.5 l and p.68/p.55, respectively.
(§2) The enzymatic tests are performed by the method of Loya et al. (19). The DNA polymerase activity is measured by monitoring the incorporation of […] into the product insoluble in trichloroacetic acid (TCA), in the presence of different concentrations of sulfolipids. The RNase-H activity is measured by measuring the delivery of the TCA-soluble product from the synthetic substrate [^3H]poly(rA)n.poly (dT)n. This substrate is prepared by the procedure of Hizi et al. (1991) (20). In all the inhibition experiments, the enzymes are preincubated for 5 min at 30° C. in the absence or presence of inhibitors at different concentrations. The enzymatic reactions are started by the addition of appropriate substrate at 37° C. for 30 min.
(§3) The residual enzymatic activity is calculated relative to the initial rates of the (linear) reaction observed in the absence of sulfolipids.
(b) One unit of RNase-H activity is the amount of enzyme which catalyzes the hydrolysis of one pmol of AMP at 37° C. over 30 min under standard test conditions.

The target in assay [2] is T2, DNA polymerase activity of HIV-2 reverse transcriptase (Human immunodeficiency virus type 2 subtype A, UniProt P04584).
T2 construct: The HIV-1 and HIV-2 reverse transcriptases are the hetero-dimers p.66/p.5 l and p.68/p.55, respectively; made in house; host or cells: E. coli
T2 sequence (P04584 613-1051): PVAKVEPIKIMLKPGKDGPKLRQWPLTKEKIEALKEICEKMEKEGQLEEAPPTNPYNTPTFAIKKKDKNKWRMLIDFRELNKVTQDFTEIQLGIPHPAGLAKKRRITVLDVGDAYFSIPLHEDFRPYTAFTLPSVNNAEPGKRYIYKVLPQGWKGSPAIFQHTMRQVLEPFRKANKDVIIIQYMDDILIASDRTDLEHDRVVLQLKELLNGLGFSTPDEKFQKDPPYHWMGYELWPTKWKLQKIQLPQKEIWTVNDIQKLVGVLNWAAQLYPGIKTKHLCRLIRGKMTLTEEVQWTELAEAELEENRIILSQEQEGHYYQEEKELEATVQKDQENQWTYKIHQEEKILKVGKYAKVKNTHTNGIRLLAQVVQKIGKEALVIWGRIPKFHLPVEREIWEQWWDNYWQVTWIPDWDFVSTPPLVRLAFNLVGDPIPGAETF
T2 sequence (P04584 613-1171): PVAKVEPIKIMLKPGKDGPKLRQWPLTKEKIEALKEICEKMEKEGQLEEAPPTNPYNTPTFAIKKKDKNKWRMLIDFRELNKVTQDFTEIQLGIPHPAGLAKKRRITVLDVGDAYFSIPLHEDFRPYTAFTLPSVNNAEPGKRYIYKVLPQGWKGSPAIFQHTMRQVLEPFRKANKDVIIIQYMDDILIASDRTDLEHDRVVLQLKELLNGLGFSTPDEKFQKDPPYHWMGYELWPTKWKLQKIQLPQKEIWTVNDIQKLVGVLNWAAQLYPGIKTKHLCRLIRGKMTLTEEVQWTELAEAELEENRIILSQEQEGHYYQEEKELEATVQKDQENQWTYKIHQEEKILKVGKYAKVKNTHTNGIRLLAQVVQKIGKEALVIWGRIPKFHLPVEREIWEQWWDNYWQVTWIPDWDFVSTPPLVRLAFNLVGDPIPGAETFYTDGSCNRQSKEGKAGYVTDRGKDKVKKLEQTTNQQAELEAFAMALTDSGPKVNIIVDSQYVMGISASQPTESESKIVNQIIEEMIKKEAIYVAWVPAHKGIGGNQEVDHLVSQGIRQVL
Description: DNA polymerase activity of HIV-2 reverse transcriptase. Here is the method: as §1, §2, §3
(§4) (a) One unit of DNA polymerase activity is the amount of enzyme which catalyzes the incorporation of one pmol of dNTP into the DNA product at 37° C. over 30 min under standard test conditions.

The target in assay [3] is T3, DNA polymerase of HIV-1 reverse transcriptase (Human immunodeficiency virus type 1 group M subtype B, UniProt P03366).
T3 construct: The HIV-1 and HIV-2 reverse transcriptases are the hetero-dimers p.66/p.5 l and p.68/p.55, respectively; made in house; host or cells: E. coli
In words: Inhibition of the DNA polymerase of HIV-1 reverse transcriptase. As to conditions: for IC50: concentration that inhibits 50% of the initial enzymatic activity; for IC90: concentration that inhibits 90% of the initial enzymatic activity; for inhibitory activity towards the DNA polymerase of HIV-1 reverse transcriptase (in words): ranking among molecular species. Here is the method:
as §1, §2, §3
The concentration of inhibitors that leads to 50% inhibition of the enzymatic activities (IC50) is calculated from the curves of inhibition as a function of inhibitor (sulfolipid) concentration.
as §4

On to `CCCCCCC=CCCCCCCCC(=O)OCC(COC1OC(CS(=O)(=O)O)C(O)C(O)C1O)OC(=O)CCCCCCCCCCCCCCC` (stereo not shown) [C16:1/C16:0], for which, in assay [1], the “RNase-H % of initial enzymatic activity” value is on record as 42 + 3%. For the same molecule, the “inhibition of the RNase-H of HIV-1 reverse transcriptase (in words)” value (“inhibition” for short) in assay [1] was “highest activities”. Besides, the “Residual enzymatic activity (%)” value was 100 + 1% in assay [2] (10.2 + 0.5 μg/ml); 96 + 1% in assay [2] (25.0 + 0.6 μg/ml); 69 + 1% in assay [2] (48.9 + 0.9 μg/ml); 58 + 2% in assay [2] (97.5 + 1.5 μg/ml); 50 + 1% in assay [2] (108.0 + 3.0 μg/ml); 24 + 2% in assay [2] (198.5 + 3.4 μg/ml). In addition, the IC50 – broadly, the midpoint of a concentration-inhibition curve – in assay [3] is 110 µM. Moreover, the IC90 (usually the point of the concentration-response curve where the effect stands at 90%) in assay [3] is 302 µg/mL (≈ 381 µM).
As for `CCCCCCCCC=CCCCCCCCC(=O)OCC(COC1OC(CS(=O)(=O)O)C(O)C(O)C1O)OC(=O)CCCCCCCCCCCCCCC` (stereo not shown) [C18:1/C16:0], the “RNase-H % of initial enzymatic activity” value in assay [1] is listed as 64 + 6%. The “inhibition” value in assay [1] is given as “highest activities”. In assay [2], the “inhibitory activity towards the DNA polymerase activity of HIV-2 reverse transcriptase (in words)” value is listed as “have an inhibitory activity”. Further, the “Residual enzymatic activity (%)” value in assay [2] (4.8 + 0.9 μg/ml) is given as 100 + 1%; in assay [2] (9.6 + 0.9 μg/ml) it was 93 + 2%; in assay [2] (19.1 + 0.9 μg/ml), 74 + 2%; in assay [2] (33.5 + 2.0 μg/ml), 50 + 1%; in assay [2] (38.3 + 1.8 μg/ml) it was 42 + 2%; in assay [2] (76.5 + 2.0 μg/ml), 24 + 2%. In assay [3], the IC50 was 29.1 µM. Also, in assay [3], the concentration for an effect of 90% (IC90) worked out at 73.6 µg/mL (≈ 89.6 µM). Moreover, the “inhibitory activity towards the DNA polymerase of HIV-1 reverse transcriptase (in words)” value in assay [3] is on record as “highest activities”.
In the case of `CCCCCC=CCC=CCCCCCCCC(=O)OCC(COC1OC(CS(=O)(=O)O)C(O)C(O)C1O)OC(=O)CCCCCCCC=CCC=CCCCCC` (stereo not shown) [C18:2/C18:2], the “RNase-H % of initial enzymatic activity” value in assay [1] turned out to be 100%. Also, in assay [3], the IC50 is 331 µM and the IC90 is 840 µg/mL (≈ 996 µM).
Take `CCCCCC=CCC=CCCCCCCCC(=O)OCC(COC1OC(CS(=O)(=O)O)C(O)C(O)C1O)OC(=O)CCCCCCCC=CCCCCCCCC` (stereo not shown) [C18:2/C18:1]: the “RNase-H % of initial enzymatic activity” value in assay [1] was found to be 100%. For the same molecule, in assay [3], 297 µM corresponded to half-maximal inhibition (IC50) and the IC90 is 753 µg/mL (≈ 891 µM).
With `CCCCCC=CCC=CCCCCCCCC(=O)OCC(COC1OC(CS(=O)(=O)O)C(O)C(O)C1O)OC(=O)CCCCCCCCCCCCCCC` (stereo not shown) [C18:2/C16:0], in assay [1], the “RNase-H % of initial enzymatic activity” value was 100%. The “inhibitory activity towards the DNA polymerase activity of HIV-2 reverse transcriptase (in words)” value in assay [2] is reported as “have an inhibitory activity”. Also, the “Residual enzymatic activity (%)” value in assay [2] (9.5 + 0.9 μg/ml) is reported as 100 + 1%; in assay [2] (23.8 + 0.9 μg/ml), 96 + 2%; in assay [2] (47.7 + 1.8 μg/ml) it was 70 + 2%; in assay [2] (95.4 + 2.0 μg/ml) it was 56 + 2%; in assay [2] (105.0 + 5.0 μg/ml) it was 50 + 1%; in assay [2] (190.8 + 4.8 μg/ml) it was 25 + 2%. Further, the midpoint of inhibition in assay [3], the IC50, lay at 92 µM. The same molecule yielded an IC90 in assay [3] of 281 µg/mL (≈ 344 µM). The “inhibitory activity towards the DNA polymerase of HIV-1 reverse transcriptase (in words)” value in assay [3] was “highest activities”.
As to `CCCCCC=CCC=CCCCCCCCC(=O)OC(COC(=O)CCCCCCCC=CCCCCCCCC)COC1OC(CS(=O)(=O)O)C(O)C(O)C1O` (stereo not shown) [C18:1/C18:2], the “RNase-H % of initial enzymatic activity” value in assay [1] was 100%. In assay [3], this molecule gave an IC50 of 248 µM and a concentration for an effect of 90% (IC90) of 628 µg/mL (≈ 743 µM).
Take `CCCCCCCCC=CCCCCCCCC(=O)OCC(COC1OC(CS(=O)(=O)O)C(O)C(O)C1O)OC(=O)CCCCCCCC=CCCCCCCCC` (stereo not shown) [C18:1/C18:1]: in assay [1], the “RNase-H % of initial enzymatic activity” value is 60 + 2%. Also, the “inhibition” value in assay [1] is “highest activities”. For the same molecule, the “inhibitory activity towards the DNA polymerase activity of HIV-2 reverse transcriptase (in words)” value in assay [2] is listed as “the highest”. Besides, the “Residual enzymatic activity (%)” value in assay [2] (4.0 + 0.5 μg/ml) is listed as 100 + 1%; in assay [2] (8.0 + 0.6 μg/ml), 92 + 1%; in assay [2] (16.0 + 0.7 μg/ml), 70 + 2%; in assay [2] (26.1 + 1.8 μg/ml), 50 + 1%; in assay [2] (36.0 + 1.0 μg/ml) it was 35 + 1%; in assay [2] (71.9 + 1.0 μg/ml), 22 + 2%. Further, in assay [3], the IC50 was 23.7 µM. The IC90 in assay [3] amounted to 68.3 µg/mL (≈ 80.6 µM). In assay [3], the “inhibitory activity towards the DNA polymerase of HIV-1 reverse transcriptase (in words)” value is “highest activities”.
As for `CCCCCCCCCCCCCCCC(=O)OCC(COC1OC(CS(=O)(=O)O)C(O)C(O)C1O)OC(=O)CCCCCCCCCCCCCCC` (stereo not shown) [C16:0/C16:0], in assay [1], the “RNase-H % of initial enzymatic activity” value was 47 + 4% and the “inhibition” value is reported as “highest activities”. In assay [3], this molecule showed an IC50 of 133 µM and an IC90 of 452 µg/mL (≈ 568 µM).
Turning to `CCCCCC=CCC=CCC=CCCCCC(=O)OCC(COC1OC(CS(=O)(=O)O)C(O)C(O)C1O)OC(=O)CCCCCCCCCCCCCCC` (stereo not shown) [γC18:3/C16:0], the “RNase-H % of initial enzymatic activity” value in assay [1] is listed as 100%. Also, in assay [3], 218 µM corresponded to half-maximal inhibition (IC50) and the IC90 came to 533 µg/mL (≈ 652 µM).
